The values below come from patent publication US20180028507A1, “3-CARBAMOYLPHENYL-4-CARBOXAMIDE AND ISOPHTALAMIDE DERIVATIVES AS INHIBITORS OF THE WNT SIGNALLING PATHWAY” (Bayer Pharma Aktiengesellschaft, priority 2015, published 2018).

Some results are limits rather than exact numbers.

The subject of assay [1] is HCT116 cells cotransfected with the FOP control vector (non-functional TCF elements). Briefly: HCT116 FOPFlash control reporter assay (FOP control vector, luciferase). The assay is classed as cell-based. The settings on record: Homo sapiens, HCT-116, 36 hours incubation, dilution series 50 μM to 15 nM, luciferase expression. As to the method: In a parallel approach, HCT116 cells were cotransfected with the FOP control vector and pcDNA3. The FOP vector is identical to the TOP construct, but it contains instead of functional TCF elements a randomized, non-functional sequence. For this transfection a stable transfected cell line was generated as well.
(§1) In preparation of the assay, the two cell lines were plated 24 hours before at 10000 cells per well of a 384 micro titre plate (MTP) in 30 μL growth medium. Selective inhibitory activity for small molecules on the mutated Wnt pathway was determined after parallel incubation of both (TOP and FOP) HCT116 reporter cell lines with a compound dilution series from 50 μM to 15 nM in steps of 3.16-fold dilutions in CAFTY buffer (130 mM NaCl, 5 mM KCl, 20 mM HEPES, 1 mM MgCl2, 5 mM NaHCO3, pH 7.4) containing 2 mM Ca^2+ and 0.01% BSA. The compounds were thereby serially prediluted in 100% DMSO and thereafter in addition 50 fold into the CAFTY compound dilution buffer (described above). From this dilution 10 μL were added to the cells in 30 μL growth medium and incubated for 36 hours at 37° C. and 5% CO2.

In assay [2] the test system is constitutive active colorectal cancer cell (CRC) Wnt pathway. Briefly: HCT116 TOPFlash cellular reporter assay (Super TopFlash vector, luciferase). The format is cell-based. The following applies: Homo sapiens, HCT-116; HCT116 Super TopFlash reporter cells, 36 hours incubation, dilution series 50 μM to 15 nM, luciferase expression. As to the method: In order to discover and characterize small molecules which inhibit the constitutive active colorectal cancer cell (CRC) Wnt pathway, a cellular reporter assay was employed. The corresponding assay cell was generated by transfection of the colorectal cancer cell line HCT116 (ATCC, #CCL-247) with the Super TopFlash vector (Morin, Science 275, 1997, 1787-1790; Molenaar et al., Cell 86 (3), 1996, 391-399). The HCT116 cell line is cultivated at 37° C. and 5% CO2 in DMEM/F-12 (Life Technologies, #11320-074), supplemented with 2 mM glutamine, 20 mM HEPES, 1.4 mM pyruvate, 0.15% Na-bicarbonate and 10% foetal bovine serum (GIBCO, #10270), this cancer cell line is pathophysiological relevant since it carries a deletion of position S45 in the β-catenin gene, leading to constitutive active Wnt signaling. Stable transfectants were generated by cotransfection with pcDNA3 and selection of stable transfected cells with 1 mg/ml G418.
as §1

Take `O=C(Nc1ccc(-c2ccccc2F)nc1)c1ccc(OC(F)(F)F)c(C(=O)NCc2ccccn2)c1` [Example 52, N^1-[6-(2-fluorophenyl)pyridin-3-yl]-N^3-(pyridin-2-ylmethyl)-4-(trifluoromethoxy) isophthalamide]: the IC50 in assay [1] turned out to be 12 µM; in assay [2], 1.75 µM.

On to `COCCNC(=O)c1cc(NC(=O)c2ccc(-c3ccccc3)cc2)ccc1OC` [Example 31, N-{4-methoxy-3-[(2-methoxyethyl)carbamoyl]phenyl}biphenyl-4-carboxamide], for which the IC50 was not below 50 µM in assay [1] and 4.59 µM in assay [2].

For `COCCCN(C)C(=O)c1cc(NC(=O)c2ccc(-c3ccccc3)cc2)ccc1OC` [Example 4, N-{4-methoxy-3-[(3-methoxypropyl)(methyl)carbamoyl]phenyl}biphenyl-4-carboxamide], the IC50 worked out at 12.2 µM in assay [1] and 0.815 µM in assay [2].

Consider `CCc1cc(NC(=O)c2cc(NC(=O)c3ccc(-c4ccccc4)cc3)ccc2OC)ccn1` [Example 36, N-{3-[(2-ethylpyridin-4-yl)carbamoyl]-4-methoxyphenyl}biphenyl-4-carboxamide], for which the IC50 in assay [1] was found to be 29 µM; in assay [2] it was 1.43 µM.

As to `Cc1cncc(NC(=O)c2cc(C(=O)Nc3ccc(-c4ccccc4)cc3)ccc2OC(F)(F)F)c1` [Example 47, N^1-(biphenyl-4-yl)-N^3-(5-methylpyridin-3-yl)-4-(trifluoromethoxy) isophthalamide], the figures for the IC50 in assay [1] and in assay [2] were not below 50 µM and 2.63 µM, respectively.

`O=C(Nc1ccc(-c2ccccc2F)nc1)c1ccc(OC(F)(F)F)c(C(=O)Nc2cccnc2)c1` [Example 57, N^1-[6-(2-fluorophenyl)pyridin-3-yl]-N^3-(pyridin-3-yl)-4-(trifluoromethoxy) isophthalamide]: the half-inhibitory concentration (IC50) in assay [1] was found to be 11 µM; in assay [2], 2.6 µM.

For `COc1cnccc1NC(=O)c1cc(C(=O)Nc2ccc(-c3ccccc3)cc2)ccc1OC(F)(F)F` [Example 23, N^1-(biphenyl-4-yl)-N^3-(3-methoxypyridin-4-yl)-4-(trifluoromethoxy)isophthalamide], the IC50 is not below 50 µM in assay [1] and 0.243 µM in assay [2].

Take `COc1ccc(C(=O)Nc2ccc(-c3ccccc3F)nc2)cc1C(=O)Nc1ccncc1` [Example 56, N^1-[6-(2-fluorophenyl)pyridin-3-yl]-4-methoxy-N^3-(pyridin-4-yl)isophthalamide]: the IC50 in assay [1] was 8 µM; in assay [2], 1.8 µM.

As to `COc1cnccc1NC(=O)c1cc(C(=O)Nc2ccc(-c3ccccc3F)nc2)ccc1OC` [Example 28, N^1-[6-(2-fluorophenyl)pyridin-3-yl]-4-methoxy-N^3-(3-methoxypyridin-4-yl)isophthalamide], the IC50 in assay [1] was not below 50 µM; in assay [2] it was 0.225 µM.
